Laboratory results as given in patent publication EP1295874A2, “Retroviral protease inhibiting compounds” (Abbott Laboratories, priority 1995, dated 1997).
Read-outs that look alike come from different tables or passages of the source.

Key:
[1] = target: T1, HIV protease (Human immunodeficiency virus type 1 group M subtype B, UniProt P04585); test: Fluorogenic Assay for Screening Inhibitors of HIV Protease; format: biochemical; conditions: read-out: Percent Inhibition
T1 construct: HIV protease consists of two identical subunits, each of which has 99 amino acid residues
Experimental: The inhibitory potency of the compound of the invention can be determined by the following method.
The compound of the invention is dissolved in DMSO and a small aliquot further diluted with DMSO to 100 times the final concentration desired for testing. The reaction is carried out in a 6 X 50 mm tube in a total volume of 300 microliters. The final concentrations of the components in the reaction buffer are: 125 mM sodium acetate, 1 M sodium chloride, 5 mM dithiothreitol, 0.5 mg/ml bovine serum albumin, 1.3 µM fluorogenic substrate, 2% (v/v) dimethylsulfoxide, pH 4.5. After addition of inhibitor, the reaction mixture is placed in the fluorometer cell holder and incubated at 30°C for several minutes. The reaction is initiated by the addition of a small aliquot of cold HIV protease. The fluorescence intensity (excitation 340 nm, emmision 490 nM) is recorded as a function of time. The reaction rate is determined for the first six to eight minutes. The observed rate is directly proportional to the moles of substrate cleaved per unit time. The percent inhibition is 100 X (1 - (rate in presence of inhibitor)/(rate in absence of inhibitor)).
Fluorogenic substrate: Dabcyl-Gaba-Ser-Gln-Asn-Tyr-Pro-lle-Val-Gln-EDANS wherein DABCYL = 4-(4-dimethylamino-phenyl)azobenzoic acid, Gaba = γ-aminobutyric acid, and EDANS = 5-((2-aminoethyl)amino)-naphthalene-1-sulfonic acid.

[2] = system: HIVIIIB; test: Antiviral activity (anti-HIV activity) in MT4 cells, MTT readout; format: cell-based; conditions: Human immunodeficiency virus 1, MT4, 120 h, read-out: IC50 (µM, 0% plasma)
From the text: (§1) The anti-HIV activity of the compound of the invention can be determined in MT4 cells according to the following procedure. MT4 cells were infected with cell-free supernatant of HIVIIIB (previously frozen with known 50% tissue culture infectious dose (TCID50) at 0.003 multiplicity of infection (MOI) for one hour. After one hour infection, cells were washed twice to remove residual viruses, resuspended in culture media and seeded into 96-well tissue culture plates at 1x10^4 cells per well with various half-log dilutions of compounds. Uninfected cells are included as toxicity and cell controls. RPMI 1640 media (Gibco ) with 10% fetal bovine serum were used as culture media. Various concentrations of human serum (Sigma) 50%, 25% and 12.5% were added to culture media resulting in final concentration of 60%, 35% and 22.5% total serum. All assay plates were incubated in 37 deg. cent. incubator for 5 days. MTT (sigma, 5 mg/ml stock in PBS) was added to all wells at 25 ul per well, incubate for 4 hours. 20%SDS with 0.02 N HCl in water was added at 50 ul per well to lyse cellls. Plates incubated overnight for complete lyses were read on a microtitre plate reader at 570/650 nm wavelengths to determine cell optical density (O.D.). Raw data were analysed for percent inhibition by the following formula: (O.D. test well - O.D. virus control)/(O.D. cell control -O.D. virus control)x100 [formula] The 50% effective concentration (EC50) was calculated by the median effect equation (Chou, 1975,Proc. Int. Cong. Pharmacol. 6th p. 619) to determine the efficacy of compound. The 50% lethal concentration (LC50) was calculated using uninfected MT4 cells.
(§2) Under these conditions, the following data were obtained (n = 4 duplicate determinations: Table 2

[3] = 50% lethal concentration in uninfected MT4 cells (MTT); format: cell-based; conditions: human, read-out: LC50
From the text: as §1, §2

[4] = Inhibitor Concentration 0.5 nanomolar

`Cc1cccc(C)c1OCC(=O)N[C@@H](Cc1ccccc1)[C@@H](O)C[C@H](Cc1ccccc1)NC(=O)[C@H](C(C)C)N1CCNC1=O` [Example 1P, (2S, 3S, 5S)-2-(2,6-dimethylphenoxyacetyl) amino-3-hydroxy-5-[2S-(1-imidazolidin-2-onyl)-3-methyl-butanoyl] amino-1,6-diphenylhexane] showed an inhibition at 0.0005 µM [1] of 92.6%, an IC50 [2] of 0.01 µM and a CC50 at 120 h [3] of 41300 nM.
With `CC(C)(C)[C@@H](C(=O)N[C@@H](Cc1ccccc1)C[C@H](O)[C@H](Cc1ccccc1)NC(=O)OCc1cncs1)N1CCNC1=O` [Example 7B, (2S,3S,5S)-2-(N-((5-Thiazolyl)-methoxycarbonyl)amino)-3-hydroxy-5-(2S-(1-imidazolidin-2-onyl)-3,3-dimethylbutanoyl)amino-1,6-diphenylhexane] the inhibition at 0.0005 µM [1, 4] was 67.1%, the IC50 [2] was 0.204 µM and the CC50 at 120 h [3] was greater than 100000 nM.
Compound `Cc1cc(C)c(OCC(=O)N[C@@H](Cc2ccccc2)[C@@H](O)C[C@H](Cc2ccccc2)NC(=O)[C@H](C(C)C)N2CCNC2=O)c(C)c1` [Example 11B, (2S,3S,5S)-2-(2,4,6-Trimethylphenoxyacetyl) amino-3-hydroxy-5-(2S-(1-imidazolidin-2-onyl)-3-methylbutanoyl) amino-1,6-diphenylhexane] has an inhibition at 0.0005 µM [1, 4] of 91.1%, an IC50 [2] of 0.19 µM and a CC50 at 120 h [3] of 18200 nM.
Compound `Cc1cccc(C)c1/C=C/C(=O)N[C@@H](Cc1ccccc1)[C@@H](O)C[C@H](Cc1ccccc1)NC(=O)[C@H](C(C)C)N1CCCNC1=O` [Example 19E] has an inhibition at 0.0005 µM [1, 4] of 68.5%, an IC50 [2] of 0.395 µM and a CC50 at 120 h [3] of 18000 nM.
Compound `Cc1cccc(C)c1OCC(=O)N[C@@H](Cc1ccccc1)[C@@H](O)C[C@H](Cc1ccccc1)NC(=O)[C@H](C(C)C)N1CCNC1=S` [Example 9B, (2S,3S,5S)-2-(2,6-Dimethylphenoxyacetyl)amino-3-hydroxy-5-(2S-(1-imidazolidin-2-thionyl)-3-methylbutanoyl)amino-1,6-diphenylhexane] has an inhibition at 0.0005 µM [1, 4] of 62.6%, an IC50 [2] of 0.272 µM and a CC50 at 120 h [3] of 19300 nM.
`Cc1cccc(C)c1OCC(=O)N[C@@H](Cc1ccccc1)[C@@H](O)C[C@H](Cc1ccccc1)NC(=O)[C@H](C(C)C)N1CCC(=O)NC1=O` [Example 25E, (2S,3S,5S)-2-(2,6-Dimethylphenoxyacetyl) amino-3-hydroxy-5-[2S-(1-tetrahydro-pyrimid-2,4-dionyl)-3-methylbutanoyl]amino-1,6-diphenylhexane] gave an inhibition at 0.0005 µM [1, 4] of 100%, an IC50 [2] of 0.012 µM and a CC50 at 120 h [3] of 22900 nM.
Work on `Cc1cccc(C)c1OCC(=O)N[C@@H](Cc1ccccc1)[C@@H](O)C[C@H](Cc1ccccc1)NC(=O)[C@H](C(C)C)N1C(=O)CCC1=O` [Example 18C, (2S,3S,5S)-2-(2,6-Dimethylphenoxyacetyl) amino-3-hydroxy-5-(2S-(1-pyrrolidin-2,5-dionyl)-3-methyl-butanoyl) amino-1,6-diphenylhexane] yielded an inhibition at 0.0005 µM [1, 4] of 57.8%, an IC50 [2] of 0.329 µM and a CC50 at 120 h [3] of 19100 nM.
`Cc1cccc(C)c1OCC(=O)N[C@@H](Cc1ccccc1)[C@@H](O)C[C@H](Cc1ccccc1)NC(=O)[C@H](C(C)C)N1CC=NNC1=O` [Example 30B, (2S,3S,5S)-2-(2,6-Dimethylphenoxyacetyl) amino-3-hydroxy-5[2S-(4-aza-4,5-dehydro-1-pyrimid-2-onyl)-3-methyl-butanoyl]amino-1,6-diphenylhexane] gave an inhibition at 0.0005 µM [1, 4] of 91%, an IC50 [2] of 0.003 µM and a CC50 at 120 h [3] of 18000 nM.
